We go through 6 compounds from publication PMC6502651 (ChemMedChem, 2019).

pIC50: −log10 of the molar value. Read-outs that look alike come from different tables or passages of the source.

In experiment [1] the target is T1, human HDAC6 (hHDAC6) (Homo sapiens, UniProt Q9UBN7).
T1 sequence (Q9UBN7 1-1215): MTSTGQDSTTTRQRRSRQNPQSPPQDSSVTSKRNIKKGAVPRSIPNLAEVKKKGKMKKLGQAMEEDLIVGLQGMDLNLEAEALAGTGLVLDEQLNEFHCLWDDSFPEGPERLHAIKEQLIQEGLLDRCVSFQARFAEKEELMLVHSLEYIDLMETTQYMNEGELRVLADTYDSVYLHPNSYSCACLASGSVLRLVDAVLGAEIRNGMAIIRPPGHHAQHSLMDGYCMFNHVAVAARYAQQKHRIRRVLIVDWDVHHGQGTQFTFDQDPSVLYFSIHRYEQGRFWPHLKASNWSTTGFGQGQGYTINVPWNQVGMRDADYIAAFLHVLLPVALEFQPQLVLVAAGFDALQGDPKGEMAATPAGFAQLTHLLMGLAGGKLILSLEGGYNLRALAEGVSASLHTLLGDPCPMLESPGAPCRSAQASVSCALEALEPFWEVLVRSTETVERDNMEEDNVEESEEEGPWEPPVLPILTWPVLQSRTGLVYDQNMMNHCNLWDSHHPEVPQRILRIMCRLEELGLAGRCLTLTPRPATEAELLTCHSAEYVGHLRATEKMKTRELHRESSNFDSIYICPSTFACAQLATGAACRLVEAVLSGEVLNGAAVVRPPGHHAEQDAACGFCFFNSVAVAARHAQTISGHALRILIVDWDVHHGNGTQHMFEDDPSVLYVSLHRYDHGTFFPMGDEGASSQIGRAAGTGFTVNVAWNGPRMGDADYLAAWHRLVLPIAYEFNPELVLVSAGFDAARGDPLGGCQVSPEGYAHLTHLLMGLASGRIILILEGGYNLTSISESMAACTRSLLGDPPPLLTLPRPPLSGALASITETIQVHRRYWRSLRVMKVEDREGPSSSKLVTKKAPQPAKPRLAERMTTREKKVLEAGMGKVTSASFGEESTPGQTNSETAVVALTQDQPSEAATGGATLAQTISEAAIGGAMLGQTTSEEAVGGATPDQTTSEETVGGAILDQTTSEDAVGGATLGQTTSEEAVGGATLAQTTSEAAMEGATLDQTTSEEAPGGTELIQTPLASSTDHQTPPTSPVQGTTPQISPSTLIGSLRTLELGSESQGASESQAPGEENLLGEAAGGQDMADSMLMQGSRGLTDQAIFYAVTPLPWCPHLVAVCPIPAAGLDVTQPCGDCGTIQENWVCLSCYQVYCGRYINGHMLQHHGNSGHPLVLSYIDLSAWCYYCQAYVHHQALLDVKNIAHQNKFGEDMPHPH
Briefly: In vitro testing on hHDAC6.

Experiment [2] has as its system HepG2 cells. The experiment is described as follows: HepG2 cytotoxicity bioluminescence assay. Particulars: Homo sapiens, HepG2, 48 h, read-out: IC50 (HepG2). The format is cell-based.
Experiment [3] has as its system 3D7 line of P. falciparum. Briefly: P. falciparum asexual intraerythrocytic growth inhibition. The format is cell-based. The note with it: for pIC50: Plasmodium falciparum.
Experiment [4] concerns the target T2, human HDAC1 (hHDAC1) (Homo sapiens, UniProt Q13547). Briefly: In vitro testing on hHDAC1.
For experiment [5], the system named is P. berghei exo-erythrocytic forms. The experiment is described as follows: P. berghei-Luc liver stage assay. The class given is cell-based. Particulars: for Selectivity index (SI) = (mammalian cell IC50)/(Pb EEF IC50): HepG2 vs Pb EEF; for pIC50: Plasmodium berghei, 48 h, read-out: Pb EEF IC50.
The subject of experiment [6] is mature stage V P. falciparum gametocytes. Briefly: Gametocytocidal activity. The format is cell-based. Particulars: Plasmodium falciparum, NF54, 48 h, read-out: Pf stage V gametocytes IC50.
Experiment [7] has as its system P. falciparum histone H4. Briefly: Protein hyperacetylation assay. Particulars: trophozoite-stage Pf 3D7, 3 h, 5x IC50. The class given is cell-based.
Experiment [8] deals with T2, human HDAC1 (hHDAC1). The note with it: read-out: hHDAC1 IC50; reference HDACi; ref [22]–[23]; cited from earlier work.
[9] abbreviates: 3D7, read-out: IC50 (Pf3D7), asexual intraerythrocytic stage P. falciparum 3D7.

T2 sequence (Q13547 whole entry): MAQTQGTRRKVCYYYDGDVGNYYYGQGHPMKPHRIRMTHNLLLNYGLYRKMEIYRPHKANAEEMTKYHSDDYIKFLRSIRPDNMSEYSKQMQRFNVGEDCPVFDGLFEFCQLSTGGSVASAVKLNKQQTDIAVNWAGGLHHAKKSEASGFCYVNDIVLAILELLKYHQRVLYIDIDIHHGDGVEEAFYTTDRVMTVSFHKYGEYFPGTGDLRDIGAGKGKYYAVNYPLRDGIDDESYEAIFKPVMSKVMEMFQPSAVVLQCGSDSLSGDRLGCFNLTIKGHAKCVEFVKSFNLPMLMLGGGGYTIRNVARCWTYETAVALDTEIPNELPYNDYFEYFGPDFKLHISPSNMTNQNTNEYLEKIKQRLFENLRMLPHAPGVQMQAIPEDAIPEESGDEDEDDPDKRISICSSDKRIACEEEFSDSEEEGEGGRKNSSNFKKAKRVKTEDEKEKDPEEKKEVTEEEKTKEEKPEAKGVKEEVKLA

As for `CN(C)c1ccc(C(=O)N(Cc2ccc(C(=O)NO)cc2)C(C)(C)C(=O)NC2CCCCC2)cc1` [Compound 2c, N-(1-(Cyclohexylamino)-2-methyl-1-oxopropan-2-yl)-4-(dimethylamino)-N-(4-(hydroxycarbamoyl)benzyl)benzamide], the pIC50 in experiment [1] is 7.05; in experiment [2], below 4.30; in experiment [3] (setting [9]), 7.02; in experiment [4] it was 6.35; in experiment [5] it was 4.70; in experiment [6], 4.79. The “Selectivity index (SI) = hHDAC1/hHDAC6” value in experiment [1] turned out to be 5. In addition, the “Selectivity index (SI) = (mammalian cell IC50)/(Pb EEF IC50)” value in experiment [5] was above 3.
For the compound `CNC(=O)CN(Cc1ccc(C(=O)NO)cc1)C(=O)c1cc(C)cc(C)c1` [Compound 2s, N-(4-(Hydroxycarbamoyl)benzyl)-3,5-dimethyl-N-(2-(methylamino)-2-oxoethyl)benzamide], the negative-log IC50 (pIC50) in experiment [1] was 7.36; in experiment [2], 4.32; in experiment [3] (setting [9]), 7.27; in experiment [4] it was 6.54; in experiment [5], 5.14; in experiment [6] it was 4.77. Moreover, the “Selectivity index (SI) = hHDAC1/hHDAC6” value in experiment [1] is listed as 7. Besides, the “Selectivity index (SI) = (mammalian cell IC50)/(P. falciparum IC50)” value in experiment [3] (HepG2 vs Pf3D7) is reported as 889. Further, the “Selectivity index (SI) = (mammalian cell IC50)/(Pb EEF IC50)” value in experiment [5] was determined as 7.
With `O=C(CCCCCCC(=O)Nc1ccccc1)NO` [SAHA, vorinostat, reference compound], in experiment [3] (3D7, read-out: IC50 (Pf3D7)), the pIC50 is 6.77. In experiment [7], the “histone acetylation compared to the vehicle control (in words)” value was “significantly increased acetylation”.
As to `CN(C)c1ccc(C(=O)N(Cc2ccc(C(=O)NO)cc2)C(C(=O)NC2CCCCC2)c2ccccc2)cc1` (racemic) [Compound 2d, rac-N-(2-(Cyclohexylamino)-2-oxo-1-phenylethyl)-4-(dimethylamino)-N-(4-(hydroxycarbamoyl)benzyl)benzamide], the pIC50 in experiment [1] is 7.19; in experiment [2] it was below 4.30; in experiment [3] (setting [9]), 6.41; in experiment [4], 6.08; in experiment [5] it was 4.72; in experiment [6], 4.83. In addition, in experiment [1], the “Selectivity index (SI) = hHDAC1/hHDAC6” value is 13. Besides, the “Selectivity index (SI) = (mammalian cell IC50)/(Pb EEF IC50)” value in experiment [5] is recorded as above 3.
As to `O=C(NO)c1ccc(CC(=O)N(CCO)c2ccccc2)cc1` [HPOB], in experiment [8], the pIC50 was 5.68.
Regarding `COc1ccc(CNC(=O)CN(Cc2ccc(C(=O)NO)cc2)C(=O)c2cc(C)cc(C)c2)cc1` [Compound 2l, N-(4-(Hydroxycarbamoyl)benzyl)-N-(2-((4-methoxybenzyl)amino)-2-oxoethyl)-3,5-dimethylbenzamide], the “Selectivity index (SI) = (mammalian cell IC50)/(Pb EEF IC50)” value in experiment [5] was determined as 34. Also, the negative logarithm of the IC50 (pIC50) in experiment [5] is 6.24; in experiment [6], 4.99.

As a reminder, the pIC50 is −log10 of the IC50, conventionally taken in molar units.
